In patent US11236108B2, “Functionalized heterocycles as antiviral agents” (ENANTA PHARMACEUTICALS, INC., priority 2019, dated 2022):

Tests used:
hepatitis B virus (HBV) = test: Reduction of viral product accumulation (HBV DNA qPCR, HBsAg or HBeAg ELISA) in 2.2.15 cells; format: cell-based; conditions: 120 h, day 5 post treatment, 50% reduction of viral product accumulation in cell lysates or supernatants relative to no drug controls, readout not specified
Description: 2.2.15 cells are passaged upon attaining confluency in DMEM/F12 media in the presence of 10% FBS, Penn/Strep, and 250 ug/mL G418. Novel compounds are 5 fold serially diluted in DMSO and added to 96 well plates containing 35,000 cells/well at a 1:200 dilution so that the final concentration of DMSO is 0.5%. On day 5, post treatment cell lysates and supernatants are harvested for analysis.
Cells are lysed using Agilent Sidestep Lysis buffer, diluted 1:100 and quantified via quantitative real time PCR. Commercially available ELISA kits are used to quantitate the viral proteins HBsAg (Alpco) or HBeAg (US Biological) by following the manufacturer's recommended protocol after diluting samples to match the linear range of their respective assays. Irrespective of readout, compound concentrations that reduce viral product accumulation in the cell lysates or supernatants by 50% relative to no drug controls (EC50) are reported; EC50 ranges are as follows: A<0.1 μM; B 0.1-1 μM; C>1 μM.

[1] = Compound induced cellular toxicity in HepG2 cells (ATPlite 1 Step); format: cell-based; conditions: human, three days exposure, 50% reduction of total ATP levels relative to no drug controls
Description: At day 3, post seeding cells are treated with ATPlite 1 Step according to the manufacturer's instructions.

SMILES | EC50 (hepatitis B virus (HBV)) [µM] | CC50 at 3 days [1] [µM]
CC(C)(C)[C@@H]1Oc2c(cc(Cl)c3occc23)-c2c1cc(C(=O)O)c(=O)n2C1CC1 [Example 2, (S)-5-(tert-butyl)-11-chloro-9-cyclopropyl-8-oxo-8,9-dihydro-5H-furo[2′,3′:7,8]chromeno[4,3-b]pyridine-7-carboxylic acid] | < 0.1 | > 25
CC(C)(C)[C@@H]1Oc2c(ccc3occc23)-c2c1cc(C(=O)O)c(=O)n2C1CC1 [Example 4, (S)-5-(tert-butyl)-9-cyclopropyl-8-oxo-8,9-dihydro-5H-furo[2′,3′:7,8]chromeno[4,3-b]pyridine-7-carboxylic acid] | < 0.1 | > 25
COc1cc2c(c3ccoc13)O[C@@H](C(C)(C)C)c1cc(C(=O)O)c(=O)n(C3CC3)c1-2 [Example 6, (S)-5-(tert-butyl)-9-cyclopropyl-11-methoxy-8-oxo-8,9-dihydro-5H-furo[2′,3′:7,8]chromeno[4,3-b]pyridine-7-carboxylic acid] | < 0.1 | > 25
CC(C)(C)[C@@H]1Oc2c(cc(O)c3occc23)-c2c1cc(C(=O)O)c(=O)n2C1CC1 [Example 5, (S)-5-(tert-butyl)-9-cyclopropyl-11-hydroxy-8-oxo-8,9-dihydro-5H-furo[2′,3′:7,8]chromeno[4,3-b]pyridine-7-carboxylic acid] | < 0.1 | > 25
CC(C)(C)[C@@H]1Oc2c(cc(Cl)c3ccoc23)-c2c1cc(C(=O)O)c(=O)n2C1CC1 [Example 3, (S)-5-(tert-butyl)-11-chloro-9-cyclopropyl-8-oxo-8,9-dihydro-5H-furo[3′,2′:7,8]chromeno[4,3-b]pyridine-7-carboxylic acid] | < 0.1 | > 25
CC(C)(C)[C@@H]1Oc2c(cc(Br)c3occc23)-c2c1cc(C(=O)O)c(=O)n2C1CC1 [Example 1, (S)-11-bromo-5-(tert-butyl)-9-cyclopropyl-8-oxo-8,9-dihydro-5H-furo[2′,3′:7,8]chromeno[4,3-b]pyridine-7-carboxylic acid] | < 0.1 | > 25
